Data published in patent US20230257396A1, “MACROCYCLES AND THEIR USE” (BLOSSOMHILL THERAPEUTICS, INC., priority 2020, published 2023).
Substitutions are numbered along the chain they refer to.

Columns and labels:
Test in all cases: KINOMEscan kinase binding assay (Eurofins/DiscoveRx), % Ctrl
[1] = target: T1, kinases (Homo sapiens, UniProt P00533, DEL746-750)
T1 construct: purchased Eurofins/DiscoveRx; host or cells: E. coli BL21-derived host (T7 phage display) for most kinases; HEK-293 for the rest
Experimental: (§1) Kinase binding assays were performed at Eurofins/DiscoveRx using the general KINOMEscan Protocol (Fabian, M. A. et al., “A small molecule-kinase interaction map for clinical kinase inhibitors,” Nat. Biotechnol. 2005, 23(3):329-36). For most assays, kinase-tagged T7 phage strains were prepared in an E. coli host derived from the BL21 strain. E. coli were grown to log-phase and infected with T7 phage and incubated with shaking at 32° C. until lysis. The lysates were centrifuged and filtered to remove cell debris. The remaining kinases were produced in HEK-293 cells and subsequently tagged with DNA for qPCR detection. Streptavidin-coated magnetic beads were treated with biotinylated small molecule ligands for 30 minutes at room temperature to generate affinity resins for kinase assays. The liganded beads were blocked with excess biotin and washed with blocking buffer (SeaBlock (Pierce), 1% BSA, 0.05% Tween 20, 1 mM DTT) to remove unbound ligand and to reduce nonspecific binding. Binding reactions were assembled by combining kinases, liganded affinity beads, and test compounds in 1×binding buffer (20% SeaBlock, 0.17×PBS, 0.05% Tween 20, 6 mM DTT). All reactions were performed in polystyrene 96-well plates in a final volume of 0.135 mL. The assay plates were incubated at room temperature with shaking for 1 hour and the affinity beads were washed with washbuffer (1×PBS, 0.05% Tween 20). The beads were then re-suspended in elution buffer (1× PBS, 0.05% Tween 20, 0.5 μM non-biotinylated affinity ligand) and incubated at room temperature with shaking for 30 minutes. The kinase concentration in the eluates was measured by qPCR. Results for compounds tested in this assay at a given concentration are reported as “% Ctrl”, where lower numbers indicate stronger binding in the matrix.
(§2) (test compound signal-positive control signal)/(negative control signal-positive control signal) X100

[2] = target: T2, kinases (Homo sapiens, UniProt P42684)
T2 construct: purchased Eurofins/DiscoveRx; host or cells: E. coli BL21-derived host (T7 phage display) for most kinases; HEK-293 for the rest
T2 sequence (P42684 whole entry): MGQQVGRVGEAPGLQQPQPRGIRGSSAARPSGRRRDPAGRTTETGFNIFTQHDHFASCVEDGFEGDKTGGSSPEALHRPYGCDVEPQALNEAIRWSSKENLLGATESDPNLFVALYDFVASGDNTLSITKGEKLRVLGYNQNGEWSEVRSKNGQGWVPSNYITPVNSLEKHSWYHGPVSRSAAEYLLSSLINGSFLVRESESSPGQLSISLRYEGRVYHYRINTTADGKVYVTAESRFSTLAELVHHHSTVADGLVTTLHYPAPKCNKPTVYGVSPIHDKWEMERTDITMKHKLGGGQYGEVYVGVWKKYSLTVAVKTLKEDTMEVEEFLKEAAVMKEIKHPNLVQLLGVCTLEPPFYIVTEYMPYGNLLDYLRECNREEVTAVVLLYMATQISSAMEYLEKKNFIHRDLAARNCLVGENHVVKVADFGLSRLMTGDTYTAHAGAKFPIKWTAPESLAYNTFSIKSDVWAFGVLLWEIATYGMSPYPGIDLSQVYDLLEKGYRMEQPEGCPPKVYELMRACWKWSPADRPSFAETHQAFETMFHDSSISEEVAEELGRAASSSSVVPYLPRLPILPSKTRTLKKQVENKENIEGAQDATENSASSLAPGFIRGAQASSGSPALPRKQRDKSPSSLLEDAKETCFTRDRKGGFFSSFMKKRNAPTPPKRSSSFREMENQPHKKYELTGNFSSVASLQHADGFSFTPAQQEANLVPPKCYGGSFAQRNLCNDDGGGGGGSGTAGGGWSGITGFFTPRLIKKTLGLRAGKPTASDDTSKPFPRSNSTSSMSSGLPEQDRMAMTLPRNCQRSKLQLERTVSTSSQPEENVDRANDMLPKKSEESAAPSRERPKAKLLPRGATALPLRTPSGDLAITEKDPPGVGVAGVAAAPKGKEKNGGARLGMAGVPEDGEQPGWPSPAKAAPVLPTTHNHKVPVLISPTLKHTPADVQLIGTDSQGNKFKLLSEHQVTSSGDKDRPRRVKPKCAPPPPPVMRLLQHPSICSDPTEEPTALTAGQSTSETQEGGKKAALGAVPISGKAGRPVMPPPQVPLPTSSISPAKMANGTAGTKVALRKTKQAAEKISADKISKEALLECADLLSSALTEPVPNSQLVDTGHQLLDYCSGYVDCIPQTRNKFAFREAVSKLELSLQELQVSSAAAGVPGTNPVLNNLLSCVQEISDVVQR
Experimental: as §1, §2

[3] = target: T3, kinases (Homo sapiens, UniProt P36888, D835Y)
T3 construct: purchased Eurofins/DiscoveRx; host or cells: E. coli BL21-derived host (T7 phage display) for most kinases; HEK-293 for the rest
T3 sequence (P36888 27-993 D835Y): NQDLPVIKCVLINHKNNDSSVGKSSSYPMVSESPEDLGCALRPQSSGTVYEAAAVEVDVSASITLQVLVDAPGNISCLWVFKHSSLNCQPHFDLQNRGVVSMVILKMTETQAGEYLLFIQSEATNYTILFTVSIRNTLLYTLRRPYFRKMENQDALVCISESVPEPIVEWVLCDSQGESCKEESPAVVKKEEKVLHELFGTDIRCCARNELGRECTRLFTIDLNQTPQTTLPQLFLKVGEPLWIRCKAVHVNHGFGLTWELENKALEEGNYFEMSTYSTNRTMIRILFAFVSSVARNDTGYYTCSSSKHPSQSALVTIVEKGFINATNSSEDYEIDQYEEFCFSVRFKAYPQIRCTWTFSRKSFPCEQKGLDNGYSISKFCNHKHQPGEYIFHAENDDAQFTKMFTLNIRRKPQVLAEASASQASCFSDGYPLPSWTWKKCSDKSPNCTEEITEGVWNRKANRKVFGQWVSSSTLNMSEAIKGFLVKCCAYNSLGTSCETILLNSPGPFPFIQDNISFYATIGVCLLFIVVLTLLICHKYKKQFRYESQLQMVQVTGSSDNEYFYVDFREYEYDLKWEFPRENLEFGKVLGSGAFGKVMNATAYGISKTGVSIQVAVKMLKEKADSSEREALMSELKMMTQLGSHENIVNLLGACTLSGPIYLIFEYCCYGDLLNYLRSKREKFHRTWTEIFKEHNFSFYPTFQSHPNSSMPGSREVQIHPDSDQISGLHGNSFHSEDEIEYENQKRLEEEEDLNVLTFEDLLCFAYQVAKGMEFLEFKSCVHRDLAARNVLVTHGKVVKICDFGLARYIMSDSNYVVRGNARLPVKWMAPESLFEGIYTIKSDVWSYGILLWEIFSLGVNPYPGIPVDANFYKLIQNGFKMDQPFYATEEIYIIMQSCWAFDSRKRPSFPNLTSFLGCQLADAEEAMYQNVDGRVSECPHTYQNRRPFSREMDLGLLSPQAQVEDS
Experimental: as §1, §2

[4] = target: T4, kinases (Homo sapiens, UniProt P00533, DEL752-759)
T4 construct: purchased Eurofins/DiscoveRx; host or cells: E. coli BL21-derived host (T7 phage display) for most kinases; HEK-293 for the rest
Experimental: as §1, §2

[5] = target: T5, kinases (Homo sapiens, UniProt P00533, T790M)
T5 construct: purchased Eurofins/DiscoveRx; host or cells: E. coli BL21-derived host (T7 phage display) for most kinases; HEK-293 for the rest
Experimental: as §1, §2

[6] = target: T6, kinases (Homo sapiens, UniProt P36888, K663Q)
T6 construct: purchased Eurofins/DiscoveRx; host or cells: E. coli BL21-derived host (T7 phage display) for most kinases; HEK-293 for the rest
T6 sequence (P36888 27-993 K663Q): T3 sequence (P36888 27-993 D835Y) with K637Q, Y809D
Experimental: as §1, §2

[7] = 1 μM; target EGFR(E746-A750del)
[8] = 1 μM; target EGFR(S752-I759del)

SMILES | % Ctrl, EGFR(E746-A750del) ([1]; 1 μM; EGFR(E746-A750del)) | % Ctrl, ABL2 ([2]; 1 μM; ABL2) | % Ctrl, FLT3(D835Y) ([3]; 1 μM; FLT3(D835Y)) | % Ctrl, EGFR(S752-I759del) ([4]; 1 μM; EGFR(S752-I759del)) | % Ctrl, EGFR(T790M) ([5]; 1 μM; EGFR(T790M)) | % Ctrl, FLT3(K663Q) ([6]; 1 μM; FLT3(K663Q)) | % Ctrl, EGFR(E746-A750del) [1, 7] | % Ctrl, ABL2 ([2]; 1 μM; target ABL2) | % Ctrl, FLT3(D835Y) ([3]; 1 μM; target FLT3(D835Y)) | % Ctrl, EGFR(S752-I759del) [4, 8] | % Ctrl, EGFR(T790M) ([5]; 1 μM; target EGFR(T790M)) | % Ctrl, FLT3(K663Q) ([6]; 1 μM; target FLT3(K663Q)) | other results
Cc1cc2c([nH]1)/C=C1\C(=O)Nc3ccc(cc31)-c1ccnn1CCOCCN(C)C2=O [Ex. 41, [19a(20)Z]-2,5-dimethyl-6,7,9,10-tetrahydro-1H-15,17-(ethanediylidene)pyrazolo[1,5-d]dipyrrolo[3,4-h:2′,3′-k][1,4,14]oxadiazacyclohexadecine-4,19(5H,18H)-dione] | 36 % Ctrl | 77 % Ctrl | 8.8 % Ctrl | 89 % Ctrl | 36 % Ctrl | 17 % Ctrl | – | – | – | – | – | – | –
CN1CCOc2cc3c(cc2Cl)NC(=O)/C3=C\c2[nH]ccc2C(=O)N(C)CC1 [Ex. 164, [16a(17)Z]-19-chloro-2,5,8-trimethyl-5,6,7,8,9,10-hexahydro-12,14-(ethanediylidene)dipyrrolo[3,2-i:3′,4′-l][1,4,7]oxadiazacyclopentadecine-4,16(1H,15H)-dione] | – | – | – | – | – | – | 18 % Ctrl | 2.3 % Ctrl | 0.5 % Ctrl | 55 % Ctrl | 97 % Ctrl | 1.4 % Ctrl | –
Cc1cc2c([nH]1)/C=C1\C(=O)Nc3ccc(cc31)O[C@@H](C)COCCN(C)C2=O [Ex. 92, [10S,16a(17)Z]-2,5,10-trimethyl-6,7,9,10-tetrahydro-1H-12,14-(ethanediylidene)dipyrrolo[3,2-i:3′,4′-l][1,4,7]dioxazacyclopentadecine-4,16(5H,15H)-dione] | 100 % Ctrl | 43 % Ctrl | 28 % Ctrl | 90 % Ctrl | 100 % Ctrl | 57 % Ctrl | – | – | – | – | – | – | –
Cc1cc2c([nH]1)/C=C1\C(=O)Nc3ccc(cc31)-c1ccnn1CCNCCNC2=O [Ex. 43, [19a(20)Z]-2-methyl-5,6,7,8,9,10-hexahydro-15,17-(ethanediylidene)pyrazolo[1,5-g]dipyrrolo[3,4-k:2′,3′-n][1,4,7]triazacyclohexadecine-4,19(1H,18H)-dione] | 69 % Ctrl | 100 % Ctrl | 86 % Ctrl | 91 % Ctrl | 100 % Ctrl | 72 % Ctrl | – | – | – | – | – | – | –
Cc1cc2c([nH]1)/C=C1\C(=O)Nc3ccc(cc31)-c1c(noc1C)CNCCN(C)C2=O [Ex. 139, [3a(4)Z]-6,9,16-trimethyl-10,11,12,13-tetrahydro-2H-1,17-(ethanediylidene)[1,2]oxazolo[4,3-m]dipyrrolo[3,2-f:3′,4′-i][1,4]diazacyclopentadecine-3,8(5H,9H)-dione] | – | – | – | – | – | – | – | – | – | – | – | – | % Ctrl, EGFR(E746-A750del) ([1]; target EGFR(E746-A750del); 1 μM): 72 % Ctrl; % Ctrl, ABL2 ([2]; target ABL2; 1 μM): 70 % Ctrl; % Ctrl, FLT3(D835Y) ([3]; target FLT3(D835Y); 1 μM): 2.5 % Ctrl; % Ctrl, EGFR(S752-I759del) ([4]; target EGFR(S752-I759del); 1 μM): 74 % Ctrl; % Ctrl, EGFR(T790M) ([5]; target EGFR(T790M); 1 μM): 36 % Ctrl; % Ctrl, FLT3(K663Q) ([6]; target FLT3(K663Q); 1 μM): 44 % Ctrl

More lines, main results first:

% Ctrl, EGFR(E746-A750del) ([1]; 1 μM; EGFR(E746-A750del)) | % Ctrl, ABL2 ([2]; 1 μM; ABL2) | % Ctrl, FLT3(D835Y) ([3]; 1 μM; FLT3(D835Y)) | % Ctrl, EGFR(S752-I759del) ([4]; 1 μM; EGFR(S752-I759del)) | % Ctrl, EGFR(T790M) ([5]; 1 μM; EGFR(T790M)) | % Ctrl, FLT3(K663Q) ([6]; 1 μM; FLT3(K663Q)) | % Ctrl, EGFR(E746-A750del) [1, 7] | % Ctrl, ABL2 ([2]; 1 μM; target ABL2) | % Ctrl, FLT3(D835Y) ([3]; 1 μM; target FLT3(D835Y)) | % Ctrl, EGFR(S752-I759del) [4, 8] | % Ctrl, EGFR(T790M) ([5]; 1 μM; target EGFR(T790M)) | % Ctrl, FLT3(K663Q) ([6]; 1 μM; target FLT3(K663Q)) | SMILES | other results
– | – | – | – | – | – | 9.9 % Ctrl | 0.3 % Ctrl | 1.6 % Ctrl | 61 % Ctrl | 69 % Ctrl | 2.7 % Ctrl | Cc1cc2c([nH]1)/C=C1\C(=O)Nc3cc(Cl)c(cc31)SCCOCCN(C)C2=O [Ex. 169, [16a(17)Z]-19-chloro-5-methyl-6,7,9,10-tetrahydro-1H-12,14-(ethanediylidene)dipyrrolo[3,4-g:2′,3′-j][1,4,13]oxathiazacyclopentadecine-4,16(5H,15H)-dione] | –
– | – | – | – | – | – | 84 % Ctrl | 51 % Ctrl | 1.9 % Ctrl | 93 % Ctrl | 26 % Ctrl | 1.7 % Ctrl | Cc1cc2c([nH]1)/C=C1\C(=O)Nc3ccc(cc31)-c1cnn(C)c1OCCCN(C)C2=O [Ex. 166, [3a(4)Z]-9,14-dimethyl-9,10,11,12-tetrahydro-14H-1,17-(ethanediylidene)pyrazolo[4,3-n]dipyrrolo[3,2-g:3′,4′-j][1,5]oxazacyclopentadecine-3,8(2H,5H)-dione] | –
13 % Ctrl | 6.9 % Ctrl | 1.4 % Ctrl | 57 % Ctrl | 9.2 % Ctrl | 5.3 % Ctrl | – | – | – | – | – | – | Cc1cc2c([nH]1)/C=C1\C(=O)Nc3ccc(cc31)-c1c(C)n[nH]c1CNCCN(C)C2=O [Ex. 127, [3a(4)Z]-6,9,16-trimethyl-9,10,11,12,13,14-hexahydro-1,17-(ethanediylidene)pyrazolo[4,3-m]dipyrrolo[3,2-f:3′,4′-i][1,4]diazacyclopentadecine-3,8(2H,5H)-dione] | –
100 % Ctrl | 100 % Ctrl | 94 % Ctrl | 74 % Ctrl | 100 % Ctrl | 84 % Ctrl | – | – | – | – | – | – | Cc1cc2c([nH]1)/C=C1\C(=O)Nc3cnc(nc31)N(C)CCCOCCN(C)C2=O [Ex.71, [17a(18)Z]-2,5,12-trimethyl-6,7,9,10,11,12-hexahydro-1H-13,15-(azenometheno)dipyrrolo[3,2-f:3′,4′-i][1,4,11,13]oxatriazacyclohexadecine-4,17(5H,16H)-dione] | –
